We go through one molecule from ChEMBL document CHEMBL5030570, “Factor XI Activation Inhibitors for Treating Thrombosis, Embolisms, Hypercoagulability, and Fibrotic Changes” (ACS Med Chem Lett, 2022).

The target of the assay is Coagulation factor XI (Homo sapiens, UniProt P03951). Kind of assay: Inhibition of human coagulation factor 11 assessed as inhibition of factor 12a mediated activation using z-GPR-AFC measured after 60 mins by fluorescence assay.
Chain of Coagulation factor XI (P03951 19-387 limits assumed): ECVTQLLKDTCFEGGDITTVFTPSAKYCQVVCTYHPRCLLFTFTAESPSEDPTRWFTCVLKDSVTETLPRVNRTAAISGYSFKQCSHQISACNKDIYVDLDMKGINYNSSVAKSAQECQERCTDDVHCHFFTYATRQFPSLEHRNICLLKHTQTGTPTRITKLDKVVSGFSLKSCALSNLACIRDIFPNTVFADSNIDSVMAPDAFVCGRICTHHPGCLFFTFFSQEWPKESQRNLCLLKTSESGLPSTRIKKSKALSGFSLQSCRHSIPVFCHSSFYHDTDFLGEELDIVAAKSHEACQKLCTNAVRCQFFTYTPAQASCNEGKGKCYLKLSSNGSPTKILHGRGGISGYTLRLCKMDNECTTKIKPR
Chain of Coagulation factor XI (P03951 388-625 limits assumed): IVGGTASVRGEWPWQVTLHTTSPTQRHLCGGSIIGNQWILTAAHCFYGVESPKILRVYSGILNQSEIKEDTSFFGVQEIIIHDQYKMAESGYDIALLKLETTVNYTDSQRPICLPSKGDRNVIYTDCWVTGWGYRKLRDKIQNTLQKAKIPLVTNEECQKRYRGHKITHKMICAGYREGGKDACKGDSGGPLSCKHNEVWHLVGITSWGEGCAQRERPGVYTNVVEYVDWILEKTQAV

For `Cc1cnn(C2CCN(C(=O)c3cc(C(=O)N4CCCCC4)c4cc(OCc5ncc(C(F)(F)F)cc5Cl)ncc4c3)CC2)c1`, the EC50 came out at 3.8 nM.

The term EC50 denotes the concentration giving half of the maximal effect.
